Test results published in paper PMC7217250, “Efficiency of vanillin in impeding metabolic adaptability and virulence of Candida albicans by inhibiting glyoxylate cycle, morphogenesis, and biofilm formation” (Current Medical Mycology, 2020).

Target: T1, Mls1p (malate synthase, MLS) (Candida albicans, UniProt Q5APD2)
T1 construct: gene MLS1; native enzyme in crude extract of C. albicans cells; not purified
Assay: spectrophotometric 5-thio-2-nitrobenzoic acid formation at […] nm, crude extract
Type: cell-based

T1 sequence (Q5APD2 entry or part of it): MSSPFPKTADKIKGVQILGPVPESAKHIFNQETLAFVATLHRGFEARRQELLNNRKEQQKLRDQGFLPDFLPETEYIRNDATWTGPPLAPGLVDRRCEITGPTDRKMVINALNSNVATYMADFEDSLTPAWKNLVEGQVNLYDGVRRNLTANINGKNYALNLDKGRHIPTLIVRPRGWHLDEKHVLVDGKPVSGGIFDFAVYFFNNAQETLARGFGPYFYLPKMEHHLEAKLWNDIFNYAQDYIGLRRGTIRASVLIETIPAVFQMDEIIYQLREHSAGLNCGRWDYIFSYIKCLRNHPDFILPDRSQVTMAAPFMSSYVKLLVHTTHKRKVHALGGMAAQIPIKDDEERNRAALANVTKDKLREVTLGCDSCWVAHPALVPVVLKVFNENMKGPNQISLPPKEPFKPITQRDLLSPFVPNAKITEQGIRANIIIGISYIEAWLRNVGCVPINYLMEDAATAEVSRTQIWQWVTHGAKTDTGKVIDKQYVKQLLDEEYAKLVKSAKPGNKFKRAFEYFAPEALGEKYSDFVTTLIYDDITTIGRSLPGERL

## CC(=O)SCCNC(=O)CCNC(=O)[C@H](O)C(C)(C)COP(=O)(O)OP(=O)(O)OC[C@H]1O[C@@H](n2cnc3c(N)ncnc32)[C@H](O)[C@@H]1OP(=O)(O)O [acetyl CoA]
  spectrophotometric 5-thio-2-nitrobenzoic acid formation at 412 nm, crude extract: acetyl CoA (Sigma Chemical Co., USA) were used as the substrates for the ICL and MLS
